Structures can show the parent of a compound that is named as a salt.
Tests used:
E. coli C7 (018:K1:H7) = test: Killing of the bacteria in culture with compound; format: cell-based; details: at 1 mM
Procedure: Bacterial culture: The effect of heptosylation inhibitors on E. coli LPS was assessed as described below. The compounds to be tested were prepared in deionised water/DMSO (50/50) solutions and added (25µL) in sterile culture microtubes. The strain used in this study was E. coli C7 (018:K1:H7). The bacteria were isolated on tryptic soy agar (TSA) over-night. Isolated colonies were cultured in 10ml of Luria-Bertani medium (LB) at 37°C up to an optical density of typically 0.15. These exponentially growing bacteria were finally diluted to 5e5 cfu/ml and added in each well (225µL) for incubation with the compounds at 37°C for approximately 5 hours, up to an optical density of ≈0.2-0.4. Some test compounds e.g. phospho-sugars required Glucose-6-Phosphate (G6P, from Sigma) to be added in the culture medium in order to activate their active transport into the bacterial cytosol via the phospho-sugar transporter UhpT. This was achieved by adding in the culture tube 2.5µL of a 10mM water solution of G6P (100µM final concentration).

HldE of E. coli = HldE of E. coli (Escherichia coli, UniProt P76658); test: Inhibition of the enzymatic activity of HldE-K (luminescent assay on kinase activity); format: biochemical; details: 3nM HldE, 0.2µM β-heptose-7-phosphate, 0.2µM ATP; 30min pre-incubation
HldE of E. coli, sequence (P76658 whole entry): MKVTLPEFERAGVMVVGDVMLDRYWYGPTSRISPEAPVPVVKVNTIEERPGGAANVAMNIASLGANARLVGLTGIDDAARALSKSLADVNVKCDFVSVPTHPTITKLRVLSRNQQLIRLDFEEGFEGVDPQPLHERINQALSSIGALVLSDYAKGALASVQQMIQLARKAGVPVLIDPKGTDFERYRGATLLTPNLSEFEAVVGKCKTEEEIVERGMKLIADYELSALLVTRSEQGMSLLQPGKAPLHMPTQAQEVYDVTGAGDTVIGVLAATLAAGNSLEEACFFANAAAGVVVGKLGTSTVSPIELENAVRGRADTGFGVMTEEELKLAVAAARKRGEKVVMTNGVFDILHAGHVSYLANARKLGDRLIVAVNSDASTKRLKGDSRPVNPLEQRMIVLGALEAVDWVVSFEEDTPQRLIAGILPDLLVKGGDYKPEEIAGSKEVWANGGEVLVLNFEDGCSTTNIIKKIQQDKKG
Procedure: Inhibition of the enzymatic activity of HldE-K (luminescent assay on kinase activity):
The assay buffer "AB" contained 50 mM Hepes pH7.5, 1 mM MnCl2, 25 mM KCl, 0.012% Triton-X100 and 1mm dithiothreitol (DTT) and 0.1µM Myelin basic protein (MBP). The following components were added in a white polystyrene Costar plate up to a final volume of 30µL: 10µL inhibitor dissolved in DMSO/water 50/50, and 20µL HldE of E. coli in AB. After 30min of pre-incubation at room temperature, 30µL of Substrates mix in AB were added in each well to a final volume of 60µL. This reaction mixture was then composed of 3nM HldE, 0.2µM β-heptose-7-phosphate (custom synthesis) and 0.2µM ATP (Sigma) in assay buffer. After 30min of incubation at room temperature, 200µL of the revelation mix were added to a final volume of 260µL, including the following constituents at the respective final concentrations: 5000 light units/ml luciferase (Sigma), 30µM D-luciferin (Sigma), 100µM N-acetylcysteamine (Aldrich). Luminescence intensity was immediately measured on Luminoskan (Thermofischer) and converted into inhibition percentages. For IC50 determinations, the inhibitor was tested at 6 to 10 different concentrations, and the related inhibitions were fitted to a classical Langmuir equilibrium model using XLFIT (IDBS).

[1] = test system: E. coli C7 LPS heptosylation; test: Inhibition of E. coli C7 LPS biosynthesis (LPS gel electrophoresis, silver staining); format: cell-based, E. coli C7 (018:K1:H7)
Procedure: Inhibition of E. coli C7 (018:K1:H7) LPS biosynthesis:
The inner core contains several heptose residues. An inhibitor of the LPS heptosylation pathway should therefore reduce dramatically the size of LPS from full-length to the so-called 'Re-LPS' limited to lipid A branched with 2 Kdo residues.
Bacterial culture: The effect of heptosylation inhibitors on E. coli LPS was assessed as described below. The compounds to be tested were prepared in deionised water/DMSO (50/50) solutions and added (25µL) in sterile culture microtubes. The strain used in this study was E. coli C7 (018:K1:H7). The bacteria were isolated on tryptic soy agar (TSA) over-night. […]
LPS extraction: Bacterial cultures were normalized via OD determination, pelleted and washed with 1ml Phosphate-Buffer-Saline (PBS). […] The resulting supernatant, containing LPS was finally analysed by SDS-PAGE electrophoresis. […]
Silver staining: Gels were incubated overnight in 5% acetic acid/40% ethanol/deionised water, treated by 1% periodic acid/5% acetic acid for 15min, washed 4 times for 10min in deionised water and finally incubated for 18min in the dark in a silver nitrate solution composed of 56ml NaOH 0.1N, 4ml ammoniac 33%, 45ml AgN03 5% (Tsai and Frasch) and 195 ml deionised water. […] Gels were finally washed in deionised water, numerized with a Samsung PL51 camera and analysed by ImageJ software. […]

GmhA of E. coli = GmhA of E. coli (Escherichia coli, UniProt P63224); test: Inhibition of the enzymatic activity of GmhA (luminescent assay); format: biochemical; details: 2nM GmhA, 3µM sedoheptulose-7-phosphate, 3µM ATP, 50nM HldE; 30min pre-incubation
GmhA of E. coli, sequence (P63224 whole entry): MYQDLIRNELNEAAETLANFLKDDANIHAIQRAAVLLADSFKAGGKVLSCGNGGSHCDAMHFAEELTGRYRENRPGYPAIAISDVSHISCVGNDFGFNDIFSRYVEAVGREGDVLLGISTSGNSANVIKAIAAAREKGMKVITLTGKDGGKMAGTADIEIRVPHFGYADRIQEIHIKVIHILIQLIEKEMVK
Procedure: Inhibition of the enzymatic activity of GmhA (luminescent assay):
The assay buffer "AB" contained 50 mM Hepes pH7.5, 1 mM MnCl2, 25 mM KCl, 0.012% Triton-X100 and 1mm dithiothreitol (DTT) and 0.1µM Myelin basic protein (MBP). The following components were added in a white polystyrene Costar plate up to a final volume of 30µL: 10µL inhibitor dissolved in DMSO/water 50/50, and 20µL GmhA of E. coli in AB. After 30min of pre-incubation at room temperature, 30µL of Substrates mix in AB were added in each well to a final volume of 60µL. This reaction mixture was then composed of 2nM GmhA, 3µM sedoheptulose-7-phosphate (Sigma), 3µM ATP (Sigma) and 50nM HldE of E. coli in assay buffer. After 30min of incubation at room temperature, 100µL of the revelation mix were added to a final volume of 160µL, including the following constituents at the respective final concentrations: 10000 light units/ml luciferase (Sigma), 20µM D-luciferin (Sigma), 100µM N-acetylcysteamine (Aldrich). Luminescence intensity was immediately measured on Luminoskan (Thermofischer) and converted into inhibition percentages. For IC50 determinations, the inhibitor was tested at 6 to 10 different concentrations, and the related inhibitions were fitted to a classical langmuir equilibrium model using XLFIT (IDBS).

## N[C@H]1C(O)O[C@H]([C@H](O)COP(=O)(O)O)[C@@H](O)[C@@H]1O (stereo partly drawn) [Example 2, 7-O-phosphate-D-glycero-D-gluco-2-deoxy-2-amino-heptopyranoside hydrochloride]
E. coli C7 (018:K1:H7)
  killing of the bacteria: did not kill the bacteria
HldE of E. coli
  IC50: < 100 µM
[1]; in absence of G6P
  reducing LPS heptosylation: inactive
[1]; in the presence of 100 µM G6P, at concentrations < 1 mM
  inhibition of E. coli C7 LPS heptosylation: at least 50%
GmhA of E. coli
  IC50: < 100 µM

## 7-O-phosphate-D-glycero-D-gluco-2-deoxy-2-amino-1-deoxy-heptopyranoside hydrochloride [Example 1]
HldE of E. coli
  IC50: < 100 µM
GmhA of E. coli
  IC50: < 100 µM

Reference: patent EP2669288A1, “New monosaccharide derivatives and biological applications thereof” (L[…], priority 2012, dated 2013)
